Usually AUC stands for concentration integrated over time. Read a low AUC as less exposure. Broadly, the Cmax is the peak of the concentration-time curve.

The text below walks through data of patent publication US20140023611A1 (priority 2010, published 2014).

SMILES strings stand for the structures.

One data set addresses T1, rat NaP2b (SLC34A2) (Rattus norvegicus, UniProt Q9JJ09).
T1 construct: host or cells: HEK293
T1 sequence (Q9JJ09 1-695): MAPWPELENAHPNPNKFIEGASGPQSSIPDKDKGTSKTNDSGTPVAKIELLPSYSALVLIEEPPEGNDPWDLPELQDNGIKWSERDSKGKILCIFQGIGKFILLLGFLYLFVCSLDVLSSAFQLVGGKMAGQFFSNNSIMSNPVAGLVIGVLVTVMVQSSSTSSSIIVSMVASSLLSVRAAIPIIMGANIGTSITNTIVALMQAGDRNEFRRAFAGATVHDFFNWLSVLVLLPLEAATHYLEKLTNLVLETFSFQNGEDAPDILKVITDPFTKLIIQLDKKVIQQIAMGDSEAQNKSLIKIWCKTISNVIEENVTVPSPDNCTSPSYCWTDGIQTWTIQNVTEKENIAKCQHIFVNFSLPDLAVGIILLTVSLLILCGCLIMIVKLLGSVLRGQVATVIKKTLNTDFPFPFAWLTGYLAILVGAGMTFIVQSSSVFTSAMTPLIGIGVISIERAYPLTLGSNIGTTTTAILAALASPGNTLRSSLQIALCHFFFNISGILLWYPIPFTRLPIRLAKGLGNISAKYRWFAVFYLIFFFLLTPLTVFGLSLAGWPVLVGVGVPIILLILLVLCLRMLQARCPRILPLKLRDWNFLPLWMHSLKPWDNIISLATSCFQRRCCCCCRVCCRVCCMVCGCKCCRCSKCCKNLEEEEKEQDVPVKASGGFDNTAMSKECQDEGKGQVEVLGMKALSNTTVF
Kind of data set: Inhibition of NaP2b-mediated Pi (33P) uptake in transfected HEK293 cells, rat NaP2b. Format: cell-based. Conditions: 33P Pi uptake, 0.1 mM phosphate, value given as pIC50 range. Put shortly:
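The cells transiently expressed NaP2b after Lipofectamine transfection. Each compound was run in duplicate over twelve concentrations, 0.1 nM–30 uM.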

The next data set deals with T2, human NaP2b (SLC34A2) (Homo sapiens, UniProt O95436).
T2 construct: host or cells: HEK293
T2 sequence (O95436 1-690): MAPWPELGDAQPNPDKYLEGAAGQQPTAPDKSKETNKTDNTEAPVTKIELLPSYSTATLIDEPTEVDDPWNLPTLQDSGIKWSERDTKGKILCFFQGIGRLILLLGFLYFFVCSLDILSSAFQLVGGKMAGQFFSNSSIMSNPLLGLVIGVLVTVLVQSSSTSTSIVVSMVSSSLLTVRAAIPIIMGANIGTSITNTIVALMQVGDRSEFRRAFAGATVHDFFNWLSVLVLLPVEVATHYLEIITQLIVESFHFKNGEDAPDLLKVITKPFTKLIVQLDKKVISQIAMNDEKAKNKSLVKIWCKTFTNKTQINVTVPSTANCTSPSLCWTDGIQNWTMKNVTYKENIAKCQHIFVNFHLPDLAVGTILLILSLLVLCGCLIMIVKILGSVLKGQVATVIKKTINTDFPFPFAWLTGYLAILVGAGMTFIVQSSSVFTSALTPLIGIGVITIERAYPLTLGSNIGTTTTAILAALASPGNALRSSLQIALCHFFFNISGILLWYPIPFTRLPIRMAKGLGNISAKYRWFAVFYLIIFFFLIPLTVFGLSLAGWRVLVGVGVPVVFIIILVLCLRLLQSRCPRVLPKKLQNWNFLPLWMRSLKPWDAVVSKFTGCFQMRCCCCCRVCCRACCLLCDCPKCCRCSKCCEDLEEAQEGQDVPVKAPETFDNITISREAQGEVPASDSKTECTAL
Kind of data set: Inhibition of NaP2b-mediated Pi (33P) uptake in transfected HEK293 cells, human NaP2b. Format: cell-based. To be noted: read-out: pIC50 range for human NaP2b (converted). The gist of the method:
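Uptake of 33P-phosphate (100 uM KH2PO4 carrier, sodium vs choline buffer, pH 7.4) measured after 3-30 min at room temperature, with test compound at twelve concentrations from 0.1 nM to 30 uM in duplicate. Cells were HEK293 transfected with mutated human NaP2b (Thr insertion after 37, N39D) and treated with a PiT-silencing agent. pIC50 values from scintillation counts.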

Data set [1] concerns Uptake of Phosphorus from the Intestine. Kind of data set: In vivo co-dosing in chow (urine P out / P consumed). To be noted: Rattus norvegicus, feed or water, rats, compound in chow, read-out: Mean % inhibition Urine Pout/P consumed; for inhibition in vivo at 100 mg/kg/day: mean drug dose 100 mg/kg/day. The text has this:
Male, 7-week-old Sprague-Dawley rats (Charles-River laboratories international, Hollister, Calif.) were allowed to acclimate for a minimum of 3 days. The experiment was initiated by switching animals to a synthetic diet (0.6% phosphorus and 0.6% calcium, Harlan Teklad TD.84122) for four days. After this time, the animals were placed into metabolic cages for daily monitoring of food and water consumption, as well as urine and fecal collections. Test compounds were incorporated into the powdered diet listed above containing 3% chocolate flavoring (w/w, BioServ #7345) at 1.3 mg test compound per gram of diet to achieve an average daily nominal dose of 100 mg/kg/day. The actual dose received by each animal was later determined by measuring prepared diet consumption and body weight. Urine samples were collected in three daily periods from 24-48, 48-72, and 72-96 hours of drug dosing. Averaging these three 24 h periods allows for the more representative measurements of urination, fecal excretion, food consumption and water uptake for each animal. Phosphorus levels in the urine were determined by anion exchange chromatography using a Dionex ICS-3000 ion chromatography system. Urine samples were diluted 1:500 or 1:1000 and injected onto an IonPac AS18 analytical column (2×250 mm) using a potassium hydroxide eluent. Elution of urine phosphate ions was monitored via conductivity detector and reported as ppm relative to a standard ion solution containing phosphate. Daily urinary P output relative to the P consumed in the prepared diet for each animal was calculated. The percentage inhibition of phosphorus absorption was estimated by determining the reduction of this ratio compared to the control group (animals with no drug in chow). The differences between the means of control and treated groups were evaluated by t tests. In all experiments, one group was always included that had Renvela powder blended into their chow at 0.9% targeting a dose of 750 mg/kg.

The nature of data set [2]: Stability of compounds in simulated gastric fluid (SGF). Format: in vitro ADME. Conditions: simulated gastric fluid (3 mg/mL pepsin), incubation time 6 hr, relative to t=0. The gist of the method: (§1)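 Compounds at […] were incubated 3 or 6 hr in USP simulated gastric fluid with 3 mg/mL pepsin or simulated intestinal fluid with 3 mg/mL pancreatin. Remaining compound was quantified by HPLC-UV or HPLC-MS peak area % and reported as percent of the t=0 level in the same medium.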

The nature of data set [3]: Stability of compounds in simulated intestinal fluid (SIF). Type of data set: in vitro ADME. To be noted: simulated intestinal fluid (3 mg/mL pancreatin), incubation time 6 hr, relative to t=0. The gist of the method: as §1
Data set [4] can be described thus: Fecal recovery of orally administered compounds. Format: in vivo, Sprague-Dawley rats. Conditions: Structure (I) examples, Table 16; rat, oral gavage, feces collected until 48 hr after dosing.
Source text: The animals were kept in metabolic cages and feces were collected from the time of dosing until 48 hr after dosing. Upon collection, feces were dried by lyophilization and ground to a visually homogenous powder. Duplicate samples of ground feces from each individual animal were weighed out and extracted using organic solvent. […] Extraction conditions were not optimized for individual compounds, and thus may represent a minimal level of recovery.
(§2) The animals were kept in metabolic cages and feces were collected from the time of dosing until 48 hr after dosing. Upon collection, feces was dried by lyophilization and ground to a visually homogenous powder. Duplicate samples of ground feces from each individual animal were weighed out and extracted using organic solvent. […] Extraction conditions were not optimized for individual compounds, and thus may represent a minimal level of recovery.
as §2
The animals were kept in metabolic cages and feces were collected from the time of dosing until 48 hr after dosing. Upon collection, feces was dried by lyophilization and ground to a visually homogenous powder. Duplicate samples of ground feces from each individual animal were weighed out and extracted using organic solvent.

Data set [5] in a line: Determination of compound Cmax and AUC after oral gavage (plasma LC-MS/MS). Format: in vivo, Sprague-Dawley rats. Conditions: Sprague-Dawley, rat, plasma, po, Structure (I) examples, Table 15, actual oral dose 3-15 mg/kg, plasma 0.5-4 h. The gist of the method:
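Plasma exposure measured by LC-MS/MS after acetonitrile precipitation with internal standard, quantified against a standard curve made in plasma. Compound given orally by gavage to Sprague-Dawley rats at nominal 2.5 or 10 mg/kg, with K2EDTA plasma sampled at 0.5, 1, 2 and 4 h.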

With `CCN(CC)c1ccc(NC(=O)c2cccc(C(=O)N(C)CCN3CCC[C@H]3C(=O)NCCOCCOCCOCCOCCOCCOCCOCCOC)c2)c(-c2cc(C(=O)NCc3cccc(C(F)(F)F)c3)ccn2)c1` [Example 203, (S)—N^1-(2-(2-(2,5,8,11,14,17,20,23-octaoxapentacosan-25-ylcarbamoyl)pyrrolidin-1-yl)ethyl)-N^3-(4-(diethylamino)-2-(4-((3-(trifluoromethyl)benzyl)carbamoyl)pyridin-2-yl)phenyl)-N^1-methylisophthalamide], the IC50 against rat NaP2b (SLC34A2) and on human NaP2b (SLC34A2) was 1 to 7.94 µM in each case. In data set [1], the inhibition in vivo at 100 mg/kg/day is at most 10%. For the same molecule, the “% remaining, SGF” value in data set [2] is given as above 80%. Further, in data set [3], the “% remaining, SIF” value was above 80%.

Consider `CCN(CC)c1ccc(NC(=O)c2cccc(CSCCOCCOCCOCCOCCC(=O)NC(CO)(CO)CO)c2)c(-c2cc(C(=O)NCc3cccc(C(F)(F)F)c3)ccn2)c1` [Example 163, 2-(5-(diethylamino)-2-(3-(20-hydroxy-19,19-bis(hydroxymethyl)-17-oxo-5,8,11,14-tetraoxa-2-thia-18-azaicosyl)benzamido)phenyl)-N-(3-(trifluoromethyl)benzyl)isonicotinamide], for which the IC50 against rat NaP2b (SLC34A2) and on human NaP2b (SLC34A2) was 1 to 7.94 µM throughout. In data set [1], the inhibition in vivo at 100 mg/kg/day was at most 10%. In data set [2], the “% remaining, SGF” value was above 80%. Also, in data set [3], the “% remaining, SIF” value is listed as 60-80%.

For `CCN(CC)c1ccc(NC(=O)c2cccc(COCCOCCOCCOCCOCCOCCOCCOCCOC)c2)c(-c2cc(C(=O)NCc3cccc(C(F)(F)F)c3)ccn2)c1` [Example 173, 2-(2-(3-2,5,8,11,14,17,20,23,26-nonaoxaheptacosylbenzamido)-5-(diethylamino)phenyl)-N-(3-(trifluoromethyl)benzyl)isonicotinamide], the IC50 on rat NaP2b (SLC34A2) and on human NaP2b (SLC34A2) was below 1 µM throughout. For the same molecule, the inhibition in vivo at 90 mg/kg/day in data set [1] (mean drug dose 90 mg/kg/day) is at most 10%. In addition, the “% remaining, SGF” value in data set [2] is reported as above 80%. The “% remaining, SIF” value in data set [3] is reported as above 80%.

In turn, `CN(CCOCCOCCOCCC(=O)O)C(=O)c1cccc(C(=O)Nc2ccc(Cl)cc2-c2cc(C(=O)N[C@H]3CCCc4ccccc43)ccn2)c1` [Example 237, (S)-1-(3-(4-chloro-2-(4-(1,2,3,4-tetrahydronaphthalen-1-ylcarbamoyl)pyridin-2-yl)phenylcarbamoyl)phenyl)-2-methyl-1-oxo-5,8,11-trioxa-2-azatetradecan-14-oic acid] showed an IC50 against rat NaP2b (SLC34A2) of 1 to 7.94 µM. In data set [1] (mean drug dose 130 mg/kg/day), the inhibition in vivo at 130 mg/kg/day is at most 10%. Besides, the “% remaining, SGF” value in data set [2] is above 80%. In addition, the “% remaining, SIF” value in data set [3] is listed as above 80%.

In the case of `CCN(CC)c1ccc(NC(=O)c2cccc(CSCCOCCOCCOCCOCCC(=O)N(CCO)CCO)c2)c(-c2cc(C(=O)NCc3cccc(C(F)(F)F)c3)ccn2)c1` [Example 164, 2-(5-(diethylamino)-2-(3-(20-hydroxy-18-(2-hydroxyethyl)-17-oxo-5,8,11,14-tetraoxa-2-thia-18-azaicosyl)benzamido)phenyl)-N-(3-(trifluoromethyl)benzyl)isonicotinamide], the IC50 at rat NaP2b (SLC34A2) was 1 to 7.94 µM; at human NaP2b (SLC34A2), below 1 µM. For the same molecule, the inhibition in vivo at 100 mg/kg/day in data set [1] was at most 10%. Further, in data set [2], the “% remaining, SGF” value was above 80%. The “% remaining, SIF” value in data set [3] is 60-80%.

Molecule `O=C(NCc1cccc(C(F)(F)F)c1)c1ccnc(-c2cc(N3CCCCC3)ccc2NC(=O)c2cccc(CSCCCO)c2)c1` [Example 8.3] showed an IC50 against rat NaP2b (SLC34A2) of 1 to 7.94 µM. Also, the “% recovered in feces” value in data set [4] is below 20%.

Molecule `CCN(CC)c1ccc(NC(=O)c2cccc(C(=O)N(C)CCN3CCN(CCOCCOCCOCCOCCOCCOCCOC)C(=O)C3)c2)c(-c2cc(C(=O)N[C@H]3CCCc4ccccc43)ccn2)c1` [Example 327, (S)—N1-(2-(4-(2,5,8,11,14,17,20-heptaoxadocosan-22-yl)-3-oxopiperazin-1-yl)ethyl)-N3-(4-(diethylamino)-2-(4-(1,2,3,4-tetrahydronaphthalen-1-ylcarbamoyl)pyridin-2-yl)phenyl)-N1-methylisophthalamide] showed an IC50 against rat NaP2b (SLC34A2) of 1 to 7.94 µM. In data set [1], the inhibition in vivo at 100 mg/kg/day is 10 to 30%. In addition, in data set [2], the “% remaining, SGF” value is above 80%. Further, the “% remaining, SIF” value in data set [3] is listed as above 80%. In data set [5], this molecule displayed an AUC below 10 ng·h/mL and a Cmax below 10 ng/mL.
